Some test systems named below: 786-0 renal; HS 578T breast; HT29 colon; MALME-3M melanoma; SK-OV-3 ovarian; SN12C renal; SNB-19 CNS; SR leukemia; T-47D breast; TK-10 renal.
Experiment in all cases: NCI tumour cell line growth inhibition, 48 h

Where “and” joins values, the source holds several entries; their conditions need not be identical. Identical values can stand only once.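 Briefly, cells in 96-well plates were exposed to five compound concentrations for 48 h, and endpoints were estimated by linear interpolation. Here, GI50 denotes the concentration required for 50% inhibition of growth. TGI marks complete inhibition of growth.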

As for `CC(=O)[O][Sn]([CH2]c1ccccc1)([CH2]c1ccccc1)[CH2]c1ccccc1`, the GI50 is over 7.05 µM with 786-0 renal; over 6.39 µM in the experiment on HS 578T breast; 4.72 µM with HT29 colon; over 4.38 µM with MALME-3M melanoma; over 10 µM in the experiment on SK-OV-3 ovarian; over 10 µM in the experiment on SN12C renal. In addition, the GI50 in the experiment on SNB-19 CNS was over 10 µM; in the experiment with SR leukemia it was 3.76 µM; in the experiment on T-47D breast it was over 10 µM; in the experiment with TK-10 renal, over 3.8 µM. Also, the TGI in the experiment on 786-0 renal was over 10 µM; with HS 578T breast it was over 9.44 µM; with HT29 colon, over 8.87 µM; with MALME-3M melanoma, over 6.05 µM; in the experiment with SK-OV-3 ovarian, over 10 µM; with SN12C renal it was over 10 µM. In addition, the TGI in the experiment on SNB-19 CNS was over 10 µM; in the experiment with SR leukemia, over 4.64 µM; in the experiment on T-47D breast it was over 10 µM; in the experiment on TK-10 renal, over 5.43 µM.
Take `Cc1nn(C)c(COc2ccc(N3CCN(S(=O)(=O)N(C)C)CC3)cc2)c1-c1cccc2c(CCCOc3cccc4ccccc34)c(C(=O)O)n(CCN3CCOCC3)c12`: the GI50 is 2.52 µM in the experiment on 786-0 renal; 2.95 µM in the experiment on HS 578T breast; 2.63 µM with HT29 colon; 3.15 µM in the experiment on MALME-3M melanoma; 2.64 µM in the experiment on SK-OV-3 ovarian; 3.25 µM with SN12C renal. The GI50 was 3.63 µM with SNB-19 CNS, 3.13 µM with SR leukemia, 2.4 µM with T-47D breast and 3.47 µM with TK-10 renal. The TGI in the experiment on 786-0 renal worked out at 6.97 µM; with HS 578T breast it was 14.7 µM; in the experiment with HT29 colon, 6.92 µM; with MALME-3M melanoma, 15.5 µM; with SK-OV-3 ovarian, 10.3 µM; with SN12C renal, 12.4 µM. The TGI in the experiment on SNB-19 CNS turned out to be 23.4 µM; in the experiment with SR leukemia, 11 µM; with T-47D breast, 9.38 µM; in the experiment with TK-10 renal, 15.5 µM.
As to `NC(=O)Nc1cc(-c2cccc(F)c2)sc1C(=O)N[C@H]1CCCNC1`, the GI50 is 0.0717 µM and 0.166 µM with 786-0 renal; 0.0322 µM and 0.197 µM with HS 578T breast; 0.25 µM and 0.282 µM with HT29 colon; 0.232 µM and 0.729 µM in the experiment on MALME-3M melanoma; 0.132 µM and 0.329 µM with SK-OV-3 ovarian; 0.0889 µM and 0.218 µM with SN12C renal. Further, the GI50 in the experiment on SNB-19 CNS was 0.562 µM and 0.54 µM; in the experiment with SR leukemia, 0.0312 µM and 0.14 µM; with T-47D breast, 1.07 µM and 2.71 µM; in the experiment with TK-10 renal it was 0.111 µM and 0.251 µM. Further, the TGI in the experiment on 786-0 renal was 1.35 µM and 0.634 µM; with HT29 colon, > 10 µM and 1.37 µM; in the experiment on MALME-3M melanoma, 4.95 µM and 6.8 µM; with SK-OV-3 ovarian it was 1.69 µM and 3.17 µM; in the experiment with SN12C renal it was 3.28 µM and 3.27 µM; with SNB-19 CNS, > 5.85 µM and 6.88 µM. Besides, the TGI in the experiment on T-47D breast was > 10 µM and 18.8 µM; in the experiment with TK-10 renal, 1.58 µM and 1.38 µM.
Take `COc1ccccc1CNCCCN1C(=O)c2ccc3c4c(ccc(c24)C1=O)C(=O)N(CCCN)C3=O`: the GI50 is 1.47 µM with 786-0 renal; 1.96 µM in the experiment with HS 578T breast; 1.42 µM in the experiment with HT29 colon; 0.36 µM in the experiment on MALME-3M melanoma; 2.53 µM with SK-OV-3 ovarian; 1.29 µM in the experiment on SN12C renal. The GI50 was 1.58 µM in the experiment on SNB-19 CNS, 0.243 µM in the experiment on SR leukemia, 1.22 µM in the experiment with T-47D breast and 2.28 µM in the experiment on TK-10 renal. Moreover, the TGI with 786-0 renal turned out to be 4.89 µM; in the experiment on HS 578T breast, 6.95 µM; with HT29 colon it was 3.75 µM; in the experiment on MALME-3M melanoma, 1.07 µM; in the experiment with SK-OV-3 ovarian, 7.18 µM; with SN12C renal, 2.76 µM. Besides, the TGI in the experiment with SNB-19 CNS came out at 3.37 µM; in the experiment on SR leukemia, 1.36 µM; in the experiment on T-47D breast it was 3.31 µM; in the experiment with TK-10 renal it was 7.89 µM.
`NCCN.O=C([O-])CN1CCOCC1.[OH-].[Pt+4]`: the GI50 in the experiment on 786-0 renal, with HS 578T breast, with HT29 colon, in the experiment on MALME-3M melanoma, in the experiment with SK-OV-3 ovarian and with SN12C renal was over 100 µM throughout. The GI50 in the experiment on SNB-19 CNS, in the experiment on SR leukemia, with T-47D breast and in the experiment on TK-10 renal was over 100 µM in each case. Besides, the TGI in the experiment on 786-0 renal, in the experiment on HS 578T breast, in the experiment with HT29 colon, with MALME-3M melanoma, in the experiment with SK-OV-3 ovarian and with SN12C renal was over 100 µM each time. For the same compound, the TGI with SNB-19 CNS, in the experiment with SR leukemia, in the experiment with T-47D breast and with TK-10 renal was over 100 µM throughout.
In the case of `O=C1C(SCCO)=C(SCCO)C(=O)N1c1ccc(-c2ccccc2)cc1`, the GI50 in the experiment with 786-0 renal was 1.33 µM; in the experiment on HS 578T breast, 17.2 µM; in the experiment on HT29 colon, 1.02 µM; in the experiment with MALME-3M melanoma, 1.61 µM; in the experiment with SK-OV-3 ovarian, 32.7 µM; with SN12C renal, 5.47 µM. Also, the GI50 in the experiment on SNB-19 CNS is 19.8 µM; with SR leukemia, 0.182 µM; in the experiment on T-47D breast, 1.71 µM; in the experiment on TK-10 renal it was 1.49 µM. Moreover, the TGI is 2.84 µM with 786-0 renal; over 77.9 µM with HS 578T breast; 3.5 µM in the experiment on HT29 colon; 5.31 µM with MALME-3M melanoma; over 100 µM in the experiment on SK-OV-3 ovarian; 19.6 µM in the experiment with SN12C renal. The TGI was 43.1 µM in the experiment on SNB-19 CNS, over 100 µM with SR leukemia, 7.43 µM with T-47D breast and 3.18 µM in the experiment on TK-10 renal.
Turning to `O=C1C(c2cnc3ccccc3n2)=C(O)c2ccccc21`, the TGI was over 100 µM in the experiment with 786-0 renal; over 100 µM in the experiment on HS 578T breast; over 100 µM in the experiment on HT29 colon; over 100 µM with MALME-3M melanoma; over 46.4 µM with SK-OV-3 ovarian; over 100 µM in the experiment with SN12C renal. Besides, the TGI with SNB-19 CNS, in the experiment with SR leukemia, with T-47D breast and in the experiment on TK-10 renal was over 100 µM in each case.
On to `OCCn1cnc2c(SCc3ccccc3)ncnc21`, for which the TGI with 786-0 renal, in the experiment with HS 578T breast, in the experiment on HT29 colon, in the experiment on MALME-3M melanoma, in the experiment with SK-OV-3 ovarian and with SN12C renal was over 100 µM throughout. The TGI with SNB-19 CNS, with SR leukemia, in the experiment on T-47D breast and with TK-10 renal was over 100 µM throughout.

The values are drawn from PubChem BioAssay (NCI).
